From paper PMC6207618, “The GbsR Family of Transcriptional Regulators: Functional Characterization of the OpuAR Repressor” (Frontiers in Microbiology, 2018)
Where two headings read alike, the source gives them in different places.

Columns and labels:
OpuAR W^93F = OpuAR W^93F (Bacillus infantis, UniProt U5LJR5, W93F); assay: biochemical; assay type: binding
Source text: (§1) The coding region of opuAR was amplified from chromosomal DNA of B. infantis NRRL B-14911 ([Massilamany et al., 2016]) using primers opuAR fwd and opuAR rev (Supplementary Table S2) harboring in their 5′-regions recognition sites for the restriction enzyme BsaI. The resulting PCR DNA fragment was then cut with BsaI and cloned into the expression vector pASK-IBA3plus (IBA, Göttingen, Germany) that had been linearized with BsaI; the obtained plasmids were named pMP_AR1 (Supplementary Table S3). Mutant derivatives of the opuAR gene were obtained using the Q5 Site-Directed Mutagenesis Kit (New England BioLabs, Ipswich, MA, United States) and a set of customized mutagenic primers (Supplementary Table S2). The Sanger sequencing method was used to verify the DNA sequence of the chromosomal insert of the parental opuAR^+ overexpression plasmid pMP_AR1 and of its derivatives carrying mutant opuAR genes. DNA sequencing was conducted by Microsynth (Lindau, Germany).
(§2) Overproduction of the OpuAR repressor protein and its mutant derivatives was carried out in the E. coli B strain BL21 harboring plasmid pMP_AR1, a derivative of the expression vector pASK-IBA3plus (IBA, Göttingen, Germany) (Supplementary Table S3). […] De-repression of P-tet promoter activity is achieved by adding the synthetic inducer AHT to the growth medium. Cultures of the E. coli B. strain BL21 (pMP_AR1) were inoculated (to a OD578 of 0.1) from pre-cultures prepared in MMA ([Miller, 1972]) supplemented with 0.5% glucose (wt/vol) as the carbon source, 0.5% casamino acids (wt/vol), 1 mg l^-1 thiamine, and 1 mM MgSO4. The cultures also contained ampicillin (100 μg ml^-1) to select for the presence of plasmid pMP_AR1 (or its mutant derivatives) and they were grown at 37°C. When the main cultures reached an OD578 of 0.5, enhanced expression of the opuAR gene from P-tet was induced by the addition of AHT to a final concentration of 0.2-μg ml^-1. Cells were grown for an additional 2 h, before they were harvested by centrifugation (at 4°C at 4,800 × g for 20 min). The cell pellets were re-suspended in lysis buffer [100 mM Tris-HCl (pH 7.5), 2.5% glycerol, 2 mM dithiothreitol, 0.4 mM EDTA, 0.5 mM phenylmethylsulfonyl fluoride (PMSF), 0.5 mM benzamidine] and the cells were then disrupted by passing them through a French pressure cell as detailed previously ([Nau-Wagner et al., 2012]). Cleared cell lysates were prepared by ultra-centrifugation (at 4°C at 100,000 × g for 35 min) before the OpuAR-Strep-tag II recombinant protein was purified by affinity chromatography ([Nau-Wagner et al., 2012]) on streptactin affinity resin according to the manufacturers specifications (IBA, Göttingen, Germany). Mutant derivatives of the OpuAR protein were overproduced and purified as described above for the wild-type protein.
(§3) The dissociation constants of OpuAR for choline and glycine betaine were determined by intrinsic tryptophan fluorescence spectroscopy as described previously using a Carry Eclips fluorescence spectrometer (Varian, Surry, United Kingdom) ([Pittelkow et al., 2011]; [Nau-Wagner et al., 2012]).

OpuAR Y^94F = OpuAR Y^94F (Bacillus infantis, UniProt U5LJR5, Y94F); assay: biochemical; assay type: binding
Chain of OpuAR Y^94F (U5LJR5 entry or part of it Y94F): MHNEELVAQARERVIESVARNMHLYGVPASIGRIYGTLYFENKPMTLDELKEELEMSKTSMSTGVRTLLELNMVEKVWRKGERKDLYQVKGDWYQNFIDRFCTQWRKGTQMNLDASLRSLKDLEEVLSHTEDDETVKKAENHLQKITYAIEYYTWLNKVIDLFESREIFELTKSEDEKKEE
Source text: as §1, §2, §3

OpuAR R^100F = OpuAR R^100F (Bacillus infantis, UniProt U5LJR5, R100F); assay: biochemical; assay type: binding
Chain of OpuAR R^100F (U5LJR5 entry or part of it R100F): as the sequence (U5LJR5 entry or part of it Y94F) above
Source text: as §1, §2, §3

OpuAR N^96F = OpuAR N^96F (Bacillus infantis, UniProt U5LJR5, N96F); assay: biochemical; assay type: binding
Chain of OpuAR N^96F (U5LJR5 entry or part of it N96F): as the sequence (U5LJR5 entry or part of it Y94F) above
Source text: as §1, §2, §3

OpuAR Y^94F/R^100F = OpuAR Y^94F/R^100F (Bacillus infantis, UniProt U5LJR5, R100F/Y94F); assay: biochemical; assay type: binding; settings: for Improvement of binding (Kd) relative to wild-type OpuAR: OpuAR double variant Y94F/R100F vs wild type
Chain of OpuAR Y^94F/R^100F (U5LJR5 entry or part of it Y94F/R100F): as the sequence (U5LJR5 entry or part of it Y94F) above
Source text: as §1, §2, §3

[1] = system: opuAA-treA reporter activity; assay: opuAA-treA reporter fusion TreA enzyme activity assay; assay type: cell-based, Bacillus subtilis; settings: strain STHB10, SMM with 1.2 M NaCl, dose-response 5 to 300 μM
B. infantis NRRL B-14911 = assay: Growth of B. infantis with glycine betaine as sole carbon source; assay type: cell-based, Bacillus infantis; settings: basal medium, 33.24 mM as sole carbon source, 46 h, 37°C
Procedure: Supplementary Figure S7 │B. infantis cannot use glycine betaine as carbon source.
Cultures of B. infantis NRRL B-14911were grown in basal medium supplemented with either glucose (27.7 mM final concentration) or glycine betaine (33.24 mM final concentration) as the sole carbon source. Growth yields were measured after 46 hours of incubation at 37 °C.
Cultures without the addition of a carbon source served as control.
(1 picture or pasted object on this page, not shown here)

Chain of OpuAR W^93F (U5LJR5 entry or part of it W93F): as the sequence (U5LJR5 entry or part of it Y94F) above

Row | SMILES | Kd (OpuAR W^93F) [µM] | Kd (OpuAR Y^94F) [µM] | Kd (OpuAR R^100F) [µM] | Kd (OpuAR N^96F) [µM] | Kd (OpuAR Y^94F/R^100F) [µM] | Improvement of binding (Kd) relative to wild-type OpuAR (OpuAR Y^94F/R^100F) | Kd (OpuAR W^93F; OpuAR variant W93F, read-out: Kd) [µM] | Kd (OpuAR Y^94F; OpuAR variant Y94F, read-out: Kd) [µM] | Kd (OpuAR R^100F; OpuAR variant R100F, read-out: Kd) [µM] | Kd (OpuAR N^96F; OpuAR variant N96F, read-out: Kd) [µM] | Kd (OpuAR Y^94F/R^100F; OpuAR double variant Y94F/R100F, read-out: Kd) [µM] | Concentration in growth medium triggering a noticeable increase in transcriptional activity [1] [µM] | Concentration sufficient to fully induce expression of the reporter fusion [1] [µM] | Use as carbon source / nutrient (growth yield) (B. infantis NRRL B-14911)
1 | C[N+](C)(C)CCO [choline] | 210 ± 33 | 240 ± 33 | 100 ± 15 | 262 ± 34 | 61 ± 11 | about threefold |  |  |  |  |  |  |  | 
2 | C[N+](C)(C)CC(=O)[O-] [glycine betaine] |  |  |  |  |  | fourfold | 224 ± 24 | 293 ± 37 | 303 ± 40 | 254 ± 39 | 70 ± 12 | 5 | 75 | cannot use
